According to patent EP3386957B1, “PROCESS FOR THE PURIFICATION OF 10-DEACETYL BACCATIN III” (RotaChrom Technológiai és Szolgálató Zártkörüen Müködö …, priority 2015, dated 2017):
Values after ≈ are worked out from the molar mass of the structure shown. Like-named read-outs stand apart in the source and are kept apart here.

Columns and labels:
Format in all cases: physicochemical
[1] = Partition coefficient in biphasic CPC solvent systems
Excerpt: (§1) As such a degree of solubility may only be achieved in a mixture of MIBK, acetone and water after heating, after cooling and shaking the substance crystalized (Margraff, 1995). The partition coefficient of 10-DAB III is around 6. […] The chromatogram according to Figure 3 presents a product purified in such a solvent system.
(§2) It was also surprising to experience that the biphasic system formed by the mixture of methyl tert-butyl ether (hereinafter: MTBE), acetone and water is also suitable for dissolving 10-DAB III, if their volumetric mixing ratio is approximately 4:4:3, in which the upper phase is a mixture of 40% MTBE, 50% acetone and 10% water, and the lower phase is a mixture of 40% water, 50% acetone and 10% MTBE. 10-DAB III is insoluble separately in MTBE and in water, but it dissolves in both phases of the aforementioned ternary solvent mixture, solubility in the upper phase is 50 mg/ml. […] Such contaminants on the basis of the HPLC method below are the RRT=0.68 and the RRT=0.87 contaminants.
Liquid chromatography or extraction performed with a chlorinated hydrocarbon is usually used for the separation of chlorophyll and related compounds. […] A solvent system that may be used for this may be the dichloromethane, methanol and water mixture at an approximate volumetric ratio of 3:4:3. In this solvent system the partition coefficient of 10-DAB III is 0.95, while that of the aforementioned problematic contaminants is around 0.4-0.5.

[2] = Solubility of 10-DAB III in solvents and biphasic solvent systems
Excerpt: as §1, §2

[3] = Selectivity of CPC solvent systems for contaminants of 10-DAB III (contaminants identified by HPLC relative retention time)
Method: The HPLC methods used for the analysis: • 1. Isocratic method • Column: Dr Maisch ReproSil-Pur C18-AQ (150x4.0 mm, 3 um) • Column thermostat: 35 °C • Flow rate: 0.75 ml/min • Eluent: 28% acetonitrile, 72% water, 0.1% acetic acid • Detection wavelength: 230 +/- 5 nm • Injected volume: 10 ul • 2. Gradient method • Colum: Phenomenex Kinetex C18 (100x3.0 mm, 2.6 um) • Column thermostat: 35 °C • Flow rate: 0.7 ml/min • Eluent A: water + 0.1% acetic acid Eluent B: acetonitrile Gradient program: 0 min 20% B, 5 min: 30% B, 11 min 40% B, 13 min 40% B, 14 min 20% B, 18 min 20% B • Detection wavelength: 230 +/- 5 nm • Injected volume: 5 ul
Table 3: the selectivity matrix of the individual methods according to the invention

SMILES	partition coefficient ([1]; MEK/water biphasic system)	partition coefficient ([1]; MTBE/acetone/water approximately 4:4:3)	partition coefficient ([1]; dichloromethane, methanol and water approximately 3:4:3)	solubility ([2]; organic solvent or mixture, MTBE/acetone/water approximately 4:4:3, upper phase (40% MTBE, 50% acetone, 10% water), read-out: solubility in the upper phase) [mg/mL]	solubility ([2]; separately in MEK or water)	solubility ([2]; separately in MTBE and in water)	solubility ([2]; upper phase of MEK/water biphasic system, organic solvent or mixture, MEK/water biphasic system, upper phase (MEK saturated with water), read-out: solubility in the upper phase) [mg/mL]	selectivity ([3]; CPC solvent mixture DCM/MeOH/water, Table 3)	selectivity ([3]; CPC solvent mixture MEK/water, isocratic HPLC method)	selectivity ([3]; CPC solvent mixture MEK/water, Table 3)	selectivity ([3]; CPC solvent mixture MTBE/acetone/water, isocratic HPLC method)	selectivity ([3]; prior-art system: mixture of methyl isobutyl ketone, acetone and water)
CC(=O)O[C@@]12CO[C@@H]1C[C@H](O)[C@@]1(C)C(=O)[C@H](O)C3=C(C)[C@@H](O)C[C@@](O)([C@@H](OC(=O)c4ccccc4)[C@H]21)C3(C)C [10-DAB III, 10-deacetylbaccatin III]	around 6	around 2	0.95	50 (≈ 91.8 mM)	does not dissolve well	insoluble	80 (≈ 147 mM)					
CC(=O)O[C@@]12CO[C@@H]1C[C@H](O)[C@@]1(CO)C(=O)[C@H](O)C3=C(C)[C@@H](O)C[C@@](O)([C@@H](OC(=O)c4ccccc4)[C@H]21)C3(C)C [RRT=0.48, 19-OH-10-deacetylbaccatin III]								+	great selectivity	+++ (high selectivity)	great selectivity	excellent selectivity
